{"source": "patent US20100215777A1", "about": "“Malononitrile Compounds” (BASF SE, priority 2006, published 2010)", "data": [{"smiles": "N#CC(C#N)(CCCSC(F)(F)F)CC(F)(F)C(F)(F)C(F)(F)C(F)(F)C(F)(F)F", "values": [{"measurement": "melting point", "value": "88 to 90", "unit": "°C"}]}]}
